Reference: patent publication US20250171423A1, “PHARMACEUTICAL COMPOUNDS FOR THE TREATMENT OF COMPLEMENT MEDIATED DISORDERS” (Achillion Pharmaceuticals, Inc., priority 2020, published 2025)
Counter-ions that a name gives are not always drawn.

target: T1, Human complement C1s enzyme (Homo sapiens, UniProt P09871); experiment: Human C1s Enzyme Assay; format: biochemical; details: human C1s 1.16 nM, 5 min preincubation, substrate Z-L-Lys-SBzl 100 μM, A405; read-out: C1s Protease Activity
T1 construct: purified from human serum, Complement Technology, Inc; purchased Complement Technology, Inc; host or cells: human serum
T1 sequence (P09871 438-688 limits assumed): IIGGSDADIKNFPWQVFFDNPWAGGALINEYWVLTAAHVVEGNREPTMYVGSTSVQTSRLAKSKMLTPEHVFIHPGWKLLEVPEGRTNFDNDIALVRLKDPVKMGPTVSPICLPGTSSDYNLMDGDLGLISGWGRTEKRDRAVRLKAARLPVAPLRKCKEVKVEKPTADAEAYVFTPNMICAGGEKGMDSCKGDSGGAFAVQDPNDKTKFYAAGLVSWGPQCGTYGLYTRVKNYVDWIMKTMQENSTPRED
T1 sequence (P09871 16-437 partner limits assumed): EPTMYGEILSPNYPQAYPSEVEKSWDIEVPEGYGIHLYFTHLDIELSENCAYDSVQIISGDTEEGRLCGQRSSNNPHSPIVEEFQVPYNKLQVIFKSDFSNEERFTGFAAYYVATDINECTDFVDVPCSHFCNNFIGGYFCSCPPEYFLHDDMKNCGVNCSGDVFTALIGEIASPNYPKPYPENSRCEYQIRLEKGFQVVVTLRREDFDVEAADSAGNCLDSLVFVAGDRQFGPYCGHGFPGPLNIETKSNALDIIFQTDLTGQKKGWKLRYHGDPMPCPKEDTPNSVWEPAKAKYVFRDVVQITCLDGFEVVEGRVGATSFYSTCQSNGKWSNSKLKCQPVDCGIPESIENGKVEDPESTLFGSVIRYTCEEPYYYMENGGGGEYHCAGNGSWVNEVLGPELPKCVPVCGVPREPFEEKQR
Description: The assay of Example 3 was used to determine the IC50's of the compounds. Other standard complement assays are also available.
Example 3. Human C1s Enzyme Assay
Human complement C1s enzyme (purified from human serum, Complement Technology, Inc.) at 1.16 nM final concentration was incubated with test compound at various concentrations for 5 min at room temperature in 50 mM Tris, 1 M NaCl, pH 7.5. A synthetic substrate Z-L-Lys-SBzl and DTNB (Ellman's reagent) were added to final concentrations of 100 μM each. Absorbance at 405 nm (A405) was recorded at 30 second intervals for 30 min using a microplate spectrophotometer. IC50 values were calculated by nonlinear regression of complement C1s reaction rates as a function of test compound concentration.

Row | Structure (SMILES) | IC50 [µM]
1 | COC[C@@]1(F)C[C@@H](C(=O)NCc2cc(C(=N)N)cs2)N(C(=O)CNC(=O)CCCOc2ccccc2)C1 [Compound 72, (2S,4R)-N-((4-carbamimidoylthiophen-2-yl)methyl)-4-fluoro-4-(methoxymethyl)-1-((4-phenoxybutanoyl)glycyl)pyrrolidine-2-carboxamide] | < 0.1
2 | CO/N=C(\N)c1csc(CNC(=O)[C@@H]2C[C@]3(C)C[C@@H]3N2C(=O)CNC(=O)c2ccc(Oc3ccccc3)cc2)c1 [Compound 6, (1S,3S,5S)-N-((4-((Z)-N′-methoxycarbamimidoyl)thiophen-2-yl)methyl)-5-methyl-2-((4-phenoxybenzoyl)glycyl)-2-azabicyclo[3.1.0]hexane-3-carboxamide] | > 1
3 | CC(C)C[C@@H](NC(=O)[C@@H]1CC2(CN1C(=O)CNC(=O)CCCOc1ccccc1)OCCO2)c1cc(C(=N)N)cs1 [Compound 173, (S)-N-((R)-1-(4-carbamimidoylthiophen-2-yl)-3-methylbutyl)-7-((4-phenoxybutanoyl)glycyl)-1,4-dioxa-7-azaspiro[4.4]nonane-8-carboxamide] | > 1
4 | C[C@@H](NC(=O)[C@@H]1CC2(CC2)CN1C(=O)CNC(=O)CCCOc1ccccc1)c1cc(C(=N)N)cs1 [Compound 116, (6S)-N-[(1R)-1-(4-carbamimidoylthiophen-2-yl)ethyl]-5-[2-(4-phenoxybutanamido)acetyl]-5-azaspiro[2.4]heptane-6-carboxamide] | < 0.1
5 | C[C@@H](NC(=O)[C@@H]1C[C@](F)(CF)CN1C(=O)CNC(=O)c1ccc(Oc2ccccc2)cc1)c1cc(C(=N)N)cs1 [Compound 187, (2S,4R)-N-((R)-1-(4-carbamimidoylthiophen-2-yl)ethyl)-4-fluoro-4-(fluoromethyl)-1-((4-phenoxybenzoyl)glycyl)pyrrolidine-2-carboxamide] | < 0.1
6 | C[C@@]12C[C@@H]1N(C(=O)CNC(=O)c1ccc(Oc3ccccc3)cc1)[C@H](C(=O)NC1CCc3c(C(=N)N)csc3C1)C2 (stereo partly drawn) [Compound 258, (1S,3S,5S)-N-(3-carbamimidoyl-4,5,6,7-tetrahydrobenzo[b]thiophen-6-yl)-5-methyl-2-((4-phenoxybenzoyl)glycyl)-2-azabicyclo[3.1.0]hexane-3-carboxamide] | > 1
7 | N=C(N)c1csc(CNC(=O)[C@@H]2C[C@@H](OC(F)F)CN2C(=O)CNC(=O)CCCOc2ccccc2)c1 [Compound 29, (2S,4R)-N-((4-carbamimidoylthiophen-2-yl)methyl)-4-(difluoromethoxy)-1-((4-phenoxybutanoyl)glycyl)pyrrolidine-2-carboxamide] | < 0.1
8 | C[C@@H](NC(=O)[C@@H]1C[C@@H](OC(F)F)CN1C(=O)CNC(=O)CCCOc1ccccc1)c1cc(C(=N)N)cs1 [Compound 123, (2S,4R)-N-((R)-1-(4-carbamimidoylthiophen-2-yl)ethyl)-4-(difluoromethoxy)-1-((4-phenoxybutanoyl)glycyl)pyrrolidine-2-carboxamide] | < 0.1
9 | N=C(N)c1csc(CNC(=O)[C@@H]2C[C@H](c3ccccc3)CN2C(=O)CNC(=O)c2ccc(Oc3ccccc3)cc2)c1 [Compound 15, (2S,4R)-N-((4-carbamimidoylthiophen-2-yl)methyl)-1-((4-phenoxybenzoyl)glycyl)-4-phenylpyrrolidine-2-carboxamide] | 0.1 to 1
10 | COCCOCCCC(=O)NCC(=O)N1[C@H]2C[C@@]2(C)C[C@H]1C(=O)NCc1cc(C(=N)N)cs1 [Compound 136, (1S,3S,5S)-N-((4-carbamimidoylthiophen-2-yl)methyl)-2-((4-(2-methoxyethoxy)butanoyl)glycyl)-5-methyl-2-azabicyclo[3.1.0]hexane-3-carboxamide] | 0.1 to 1
11 | COC[C@H]1C[C@@H](C(=O)NCc2cc(C(=N)N)cs2)N(C(=O)CNC(=O)c2ccc(Oc3ccccc3)cc2)C1 [Compound 14, (2S,4S)-N-((4-carbamimidoylthiophen-2-yl)methyl)-4-(methoxymethyl)-1-((4-phenoxybenzoyl)glycyl)pyrrolidine-2-carboxamide hydrochloride] | < 0.1
12 | C[C@@]12C[C@@H]1N(C(=O)CNC(=O)CCCOC1CCCCC1)[C@H](C(=O)NCc1cc(C(=N)N)cs1)C2 [Compound 117] | < 0.1
13 | N=C(N)c1csc(CNC(=O)[C@@H]2CC3(CN2C(=O)CNC(=O)CCCOc2ccc(C4CC4)cc2)OCCO3)c1 [Compound 208, (S)-N-((4-carbamimidoylthiophen-2-yl)methyl)-7-((4-(4-cyclopropylphenoxy)butanoyl)glycyl)-1,4-dioxa-7-azaspiro[4.4]nonane-8-carboxamide] | < 0.1
14 | Cc1ccc(OCCCC(=O)NCC(=O)N2CC3(C[C@H]2C(=O)NCc2cc(C(=N)N)cs2)OCCO3)cc1 [Compound 64, (S)-N-((4-carbamimidoylthiophen-2-yl)methyl)-7-((4-(p-tolyloxy)butanoyl)glycyl)-1,4-dioxa-7-azaspiro[4.4]nonane-8-carboxamide] | < 0.1
15 | C[C@@]12C[C@@H]1N(C(=O)CNC(=O)c1ccc(Oc3ccccc3)cn1)[C@H](C(=O)NCc1cc(C(=N)N)cs1)C2 [Compound 93, (1S,3S,5S)-N-((4-carbamimidoylthiophen-2-yl)methyl)-5-methyl-2-((5-phenoxy-picolinoyl)glycyl)-2-azabicyclo[3.1.0]hexane-3-carboxamide] | < 0.1
16 | N=C(N)c1csc(CNC(=O)[C@@H]2C[C@@H](Oc3ccccc3)CN2C(=O)CNC(=O)CCCOc2ccccc2)c1 [Compound 69, (2S,4R)-N-((4-carbamimidoylthiophen-2-yl)methyl)-4-phenoxy-1-((4-phenoxy-butanoyl)glycyl)pyrrolidine-2-carboxamide] | < 0.1
17 | Cc1ccccc1[C@@H]1C[C@@H](C(=O)NCc2cc(C(=N)N)cs2)N(C(=O)CNC(=O)CCCOc2ccccc2)C1 [Compound 155, (2S,4S)-N-((4-carbamimidoylthiophen-2-yl)methyl)-1-((4-phenoxybutanoyl)glycyl)-4-(o-tolyl)pyrrolidine-2-carboxamide] | < 0.1
18 | CC(C)C(NC(=O)[C@@H]1C[C@@H](OC(F)F)CN1C(=O)CNC(=O)c1ccc(Oc2ccccc2)cc1)c1cc(C(=N)N)cs1 (stereo in doubt) [Compound 188, (2S,4R)-N-((S)-1-(4-carbamimidoylthiophen-2-yl)-2-methylpropyl)-4-(difluoromethoxy)-1-((4-phenoxybenzoyl)glycyl)pyrrolidine-2-carboxamide] | > 1
19 | COC[C@H]1C[C@@H](C(=O)N[C@H](C)c2cc(C(=N)N)cs2)N(C(=O)CNC(=O)c2ccc(Oc3ccccc3)cc2)C1 (relative stereo) [Compound 252, (2S,4S*)-N-((R)-1-(4-carbamimidoylthiophen-2-yl)ethyl)-4-(methoxymethyl)-1-((4-phenoxybenzoyl)glycyl)pyrrolidine-2-carboxamide] | < 0.1
20 | C[C@@]12C[C@@H]1N(C(=O)CNC(=O)CCCOc1ccc(S(F)(F)(F)(F)F)cc1)[C@H](C(=O)NCc1cc(C(=N)N)cs1)C2 [Compound 96, (1S,3S,5S)-N-((4-carbamimidoylthiophen-2-yl)methyl)-5-methyl-2-((4-(4-(pentafluoro-λ^6-sulfanyl)phenoxy)butanoyl)glycyl)-2-azabicyclo[3.1.0]hexane-3-carboxamide] | < 0.1
21 | N=C(N)c1csc(CNC(=O)[C@@H]2C[C@H](C3CCCC3)CN2C(=O)CNC(=O)c2ccc(Oc3ccccc3)cc2)c1 [Compound 260, (2S,4R)-N-((4-carbamimidoylthiophen-2-yl)methyl)-4-cyclopentyl-1-((4-phenoxybenzoyl)glycyl) pyrrolidine-2-carboxamide] | < 0.1
22 | C[C@@H](NC(=O)[C@@H]1C[C@]2(C)C[C@@H]2N1C(=O)CNC(=O)c1ccc(C(=O)c2ccccc2)cc1)c1cc(C(=N)N)cs1 [Compound 180, (1S,5S)-2-((4-benzoylbenzoyl)glycyl)-N-((R)-1-(4-carbamimidoylthiophen-2-yl)ethyl)-5-methyl-2-azabicyclo[3.1.0]hexane-3-carboxamide] | < 0.1
23 | N=C(N)c1csc(CNC(=O)[C@@H]2CC3(CN2C(=O)CNC(=O)CCCOc2ccc(F)cc2)OCCO3)c1 [Compound 65, (S)-N-((4-carbamimidoylthiophen-2-yl)methyl)-7-((4-(4-fluorophenoxy)butanoyl)glycyl)-1,4-dioxa-7-azaspiro[4.4]nonane-8-carboxamide] | < 0.1

same assay, conditions: read-out: C1s Protease Activity; human C1s 1.16 nM, 5 min preincubation, substrate Z-L-Lys-SBzl 100 μM, A405

Row | Structure (SMILES) | IC50 [µM]
24 | N=C(N)c1csc(CNC(=O)C23CCC(CC2)N3C(=O)CNC(=O)CCCOc2ccccc2)c1 [Compound 30, N-((4-carbamimidoylthiophen-2-yl)methyl)-7-((4-phenoxybutanoyl)glycyl)-7-azabicyclo[2.2.1]heptane-1-carboxamide] | < 0.1
